Results on 7 molecules are retold here after patent publication US10472344B2, “Factor XIa inhibitors” (MERCK SHARP & DOHME CORP., priority 2015, dated 2019).

In experiment [1] the target is purified human Factor XIa (Homo sapiens (Human), UniProt P03951). The experiment in a line: Factor XIa Assay. The format is biochemical. The conditions noted are these: fluorogenic substrate Z-Gly-Pro-Arg-AFC, 40 pM enzyme, pH 7.4; read-out: Human FXIa Ki. As for the experimental part:
(§1) The effectiveness of a compound of the present invention as an inhibitor of Coagulation Factor XIa can be determined using a relevant purified serine protease, and an appropriate synthetic substrate. The rate of hydrolysis of the chromogenic or fluorogenic substrate by the relevant serine protease was measured both in the absence and presence of compounds of the present invention. Assays were conducted at room temperature or at 37° C. […] A decrease in the rate of fluorescence change in the presence of inhibitor is indicative of enzyme inhibition. Such methods are known to one skilled in the art. The results of this assay are expressed as the inhibitory constant, Ki.
Factor XIa determinations were made in 50 mM HEPES buffer at pH 7.4 containing 150 mM NaCl, 5 mM CaCl2, and 0.1% PEG 8000 (polyethylene glycol; JT Baker or Fisher Scientific). Determinations were made using purified human Factor XIa at a final concentration of 40 pM (Sekisui Diagnostics) and he synthetic substrate, Z-Gly-Pro-Arg-AFC, TFA salt (Sigma #C0980) at a concentration of […].
Activity assays were performed by diluting a stock solution of substrate at least tenfold to a final concentration ≤0.1 Km into a solution containing enzyme or enzyme equilibrated with inhibitor. Times required to achieve equilibration between enzyme and inhibitor were determined in control experiments. Initial velocities of product formation in the absence (V0) or presence of inhibitor (V1) were measured. Assuming competitive inhibition, and that unity is negligible compared Km/[S], [I]/e, and [I]/e (where [S], [I], and e respectively represent the total concentrations, of substrate, inhibitor and enzyme), the equilibrium constant (Ki) for dissociation of the inhibitor from the enzyme can be obtained from the dependence of V0/Vi on [I] shown in the following equation. V0/Vi=1+[I]/Ki

In experiment [2] the target is purified Human plasma kallikrein (Homo sapiens (Human), UniProt P03952). The experiment in a line: Kallikrein Assay. The experiment is classed as biochemical. The settings on record: fluorogenic substrate Acetyl-K-P-R-AFC, 0.5 nM enzyme, pH 7.4; Ki from IC50 by Cheng Prusoff. The method, then: as §1, with “Kallikrein” for “Coagulation Factor XIa”
Chain of purified Human plasma kallikrein (P03952 391-638): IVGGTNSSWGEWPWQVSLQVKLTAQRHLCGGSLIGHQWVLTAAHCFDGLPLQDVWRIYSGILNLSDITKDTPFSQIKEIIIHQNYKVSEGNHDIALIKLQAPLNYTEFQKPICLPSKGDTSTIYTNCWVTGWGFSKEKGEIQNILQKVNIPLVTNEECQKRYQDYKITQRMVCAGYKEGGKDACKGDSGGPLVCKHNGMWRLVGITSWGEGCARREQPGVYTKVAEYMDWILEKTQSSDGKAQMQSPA
Chain of purified Human plasma kallikrein (P03952 20-390 partner): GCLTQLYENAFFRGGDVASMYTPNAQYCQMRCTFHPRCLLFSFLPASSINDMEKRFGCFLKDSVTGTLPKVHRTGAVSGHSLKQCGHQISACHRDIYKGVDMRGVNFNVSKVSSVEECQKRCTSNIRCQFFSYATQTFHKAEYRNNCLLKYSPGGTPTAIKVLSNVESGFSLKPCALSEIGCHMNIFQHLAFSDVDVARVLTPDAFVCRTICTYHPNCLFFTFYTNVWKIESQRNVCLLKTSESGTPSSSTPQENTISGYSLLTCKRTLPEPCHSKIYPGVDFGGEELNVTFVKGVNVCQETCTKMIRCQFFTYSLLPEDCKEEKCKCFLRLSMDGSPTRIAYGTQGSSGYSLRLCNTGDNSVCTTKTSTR
Kallikrein determinations were made in 50 mM HEPES buffer at pH 7.4 containing 150 mM NaCl, 5 mM CaCl2, and 0.1% PEG 8000 (polyethylene glycol; Fisher Scientific). Determinations were made using purified Human plasma kallikrein at a final concentration of 0.5 nM (Enzyme Research Laboratories) and the synthetic substrate, Acetyl-K-P-R-AFC (Sigma #C6608) at a concentration of […].
Activity assays were performed by diluting a stock solution of substrate at least tenfold to a final concentration≤0.2 Km into a solution containing enzyme or enzyme equilibrated with inhibitor. Times required to achieve equilibration between enzyme and inhibitor were determined in control experiments. The reactions were performed under linear progress curve conditions and fluorescence increase measured at 405 Ex/510 Em nm. Values were converted to percent inhibition of the control reaction (after subtracting 100% Inhibition value). IC50 was determined by inflection point from a four parameter logistic curve fit. Ki was calculated using the Cheng Prusoff equation, Ki=IC50/(1+([S]/Km)).

SMILES strings stand for the structures.

Chain of purified human Factor XIa (P03951 388-625): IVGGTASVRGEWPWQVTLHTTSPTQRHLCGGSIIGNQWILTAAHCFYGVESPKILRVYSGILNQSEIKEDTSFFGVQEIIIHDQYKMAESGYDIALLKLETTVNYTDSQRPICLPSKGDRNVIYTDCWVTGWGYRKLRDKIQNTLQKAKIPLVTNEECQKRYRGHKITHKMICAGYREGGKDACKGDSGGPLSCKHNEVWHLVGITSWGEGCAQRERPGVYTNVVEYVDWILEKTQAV
Chain of purified human Factor XIa (P03951 19-387 partner): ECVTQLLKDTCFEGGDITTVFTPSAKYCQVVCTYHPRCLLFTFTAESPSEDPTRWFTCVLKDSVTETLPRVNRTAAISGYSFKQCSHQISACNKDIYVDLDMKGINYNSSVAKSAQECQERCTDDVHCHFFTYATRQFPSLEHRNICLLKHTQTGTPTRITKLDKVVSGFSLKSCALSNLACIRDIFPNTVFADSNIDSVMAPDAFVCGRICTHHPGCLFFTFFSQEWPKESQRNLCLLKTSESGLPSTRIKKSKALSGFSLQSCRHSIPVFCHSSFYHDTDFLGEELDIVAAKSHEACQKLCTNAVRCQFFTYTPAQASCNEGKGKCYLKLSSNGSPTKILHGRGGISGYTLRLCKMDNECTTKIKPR

By Ki is commonly meant a measure of affinity in units of concentration, obtained from inhibition or displacement. As for `COC(=O)Nc1ccc(C(=O)N[C@@H](Cc2ccccc2)c2ccc(-c3cc(Cl)ccc3-n3cnnn3)c[n+]2[O-])cc1` [Example 2, (S)-5-(5-chloro-2-(1H-tetrazol-1-yl)phenyl)-2-(1-(4-((methoxycarbonyl)amino)benzamido)-2-phenylethyl)pyridine 1-oxide], the inhibition constant Ki in experiment [1] is 3.6 nM; in experiment [2], 105 nM.
For `O=C(O)c1ccc(C(=O)NC(Cc2ccccc2)c2ccc(-c3cc(Cl)ccc3-n3cnnn3)c[n+]2[O-])cc1` (stereo not drawn) [Example 5], the Ki in experiment [1] amounted to 83 nM.
With `Nc1n[nH]c2cc(C(=O)N[C@@H](Cc3ccccc3)c3ccc(-c4cc(Cl)ccc4-n4cnnn4)c[n+]3[O-])ccc12` [Example 1, (S)-2-(1-(3-AMMONIO-1H-INDAZOLE-6-CARBOXAMIDO)-2-PHENYLETHYL)-5-(5-CHLORO-2-(1H-TETRAZOL-1-YL)PHENYL)PYRIDINE 1-OXIDE 2,2,2-TRIFLUOROACETATE], the figures for the Ki in experiment [1] and in experiment [2] were 0.9 nM and 25 nM, respectively.
`COCC(=O)Nc1ccc(C(=O)N[C@@H](Cc2ccccc2)c2ccc(-c3cc(Cl)ccc3-n3cnnn3)c[n+]2[O-])cc1` [Example 7]: the Ki in experiment [1] came out at 20 nM; in experiment [2] it was 516 nM.
Turning to `COC(=O)Nc1cccc(C(=O)NC(Cc2ccccc2)c2ccc(-c3cc(Cl)ccc3-n3cnnn3)c[n+]2[O-])c1` (stereo not drawn) [Example 3], the Ki in experiment [1] stood at 144 nM.
Turning to `NC(=O)c1ccc(C(=O)N[C@@H](Cc2ccccc2)c2ccc(-c3cc(Cl)ccc3-n3cnnn3)c[n+]2[O-])s1` [Example 4], the Ki in experiment [1] stood at 1.3 nM; in experiment [2], 36 nM.
Regarding `O=C(O)c1ccc(C(=O)N[C@@H](Cc2ccccc2)c2ccc(-c3cc(Cl)ccc3-n3cnnn3)c[n+]2[O-])s1` [Example 6], the Ki was 6.9 nM in experiment [1] and 219 nM in experiment [2].
